In publication PMC6382835, “A critical evaluation of TRPA1-mediated locomotor behavior in zebrafish as a screening tool for novel anti-nociceptive drug discovery” (Scientific Reports, 2019):

Target: T1, zebrafish TRPA1b (zTRPA1b) (Danio rerio, UniProt A0A8M1N2Z4)
T1 sequence (A0A8M1N2Z4 1-1120): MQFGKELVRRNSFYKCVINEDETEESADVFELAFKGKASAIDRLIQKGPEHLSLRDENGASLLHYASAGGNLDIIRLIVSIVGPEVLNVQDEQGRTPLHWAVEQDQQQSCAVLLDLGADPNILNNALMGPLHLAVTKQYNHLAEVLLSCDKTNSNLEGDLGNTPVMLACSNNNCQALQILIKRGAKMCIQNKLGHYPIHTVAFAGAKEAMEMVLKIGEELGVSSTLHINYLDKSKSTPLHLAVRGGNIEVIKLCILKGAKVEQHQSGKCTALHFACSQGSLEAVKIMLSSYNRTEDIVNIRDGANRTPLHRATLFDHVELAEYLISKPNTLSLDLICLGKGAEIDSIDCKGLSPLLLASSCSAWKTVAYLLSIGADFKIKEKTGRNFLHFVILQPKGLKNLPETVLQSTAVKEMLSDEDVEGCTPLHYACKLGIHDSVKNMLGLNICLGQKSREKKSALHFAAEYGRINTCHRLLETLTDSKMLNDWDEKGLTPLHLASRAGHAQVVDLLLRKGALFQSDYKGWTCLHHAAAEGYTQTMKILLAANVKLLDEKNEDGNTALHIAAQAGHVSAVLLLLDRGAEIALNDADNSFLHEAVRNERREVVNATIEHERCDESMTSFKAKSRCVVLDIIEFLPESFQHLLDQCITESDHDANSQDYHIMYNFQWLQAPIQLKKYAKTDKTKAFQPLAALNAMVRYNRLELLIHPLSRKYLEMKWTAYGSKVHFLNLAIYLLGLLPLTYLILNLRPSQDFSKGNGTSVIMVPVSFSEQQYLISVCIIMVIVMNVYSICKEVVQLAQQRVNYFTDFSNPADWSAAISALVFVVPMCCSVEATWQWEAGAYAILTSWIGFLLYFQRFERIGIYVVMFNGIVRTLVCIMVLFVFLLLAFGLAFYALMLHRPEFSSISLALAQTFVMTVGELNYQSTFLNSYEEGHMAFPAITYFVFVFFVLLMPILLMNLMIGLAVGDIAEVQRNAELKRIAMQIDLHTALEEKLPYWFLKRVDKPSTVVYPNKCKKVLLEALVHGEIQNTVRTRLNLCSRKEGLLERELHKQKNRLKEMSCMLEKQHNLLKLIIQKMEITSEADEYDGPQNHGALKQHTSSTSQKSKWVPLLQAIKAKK
Test: FLIPR calcium signaling assay in zTRPA1b-transfected HEK293 cells
Format: cell-based
Settings: for EC50: agonist calcium influx, zTRPA1b-transfected HEK293, read-out: EC50 (potency in µM)
Method: The cells were maintained in a 37 °C incubator with consistent 5% CO2. […] Experiments were carried out with the approval of the Institutional Biohazard Committee (#13-013-16).
Twenty-five µl calcium sensitive Fluorescent Imaging Plate Reader (FLIPR) Calcium 6 assay dye (#R8190, Molecular Devices, CA, USA) was added to each well of a 384-well plate containing HEK293 cells transiently expressing mTRPA1, zTRPA1a, and zTRPA1b, respectively. The cells were incubated for an hour prior to the recording of intracellular calcium levels in a FlexStation3 Multi-Mode Microplate Reader (#R8190, Molecular Devices) as previously described. […] During the assay, the cells were challenged by a 5x ASP7663 solution or 1% DMSO solution at the 20 seconds time point, and both solutions were diluted in calcium buffer. Relative fluorescence units (RFU) were measured for 120 seconds period by the Flexstation. […] For each specific antagonist concentration we plotted Log(dose ratio-1) against the antagonist concentration in a Schild plot. The dose ratio (A’/A) equals the EC50 of the agonist (ASP7665) in the presence of a concentration of the antagonist (A’) divided by the EC50 of the agonist in the absence of antagonist (A). The x-intercept of the Schild plot was used to identify the antagonist-receptor affinity (pA2).
All data are presented as means ± standard error of the mean (SEM). For our in vitro statistical analysis, AUC of calcium influx (RFU) was measured to plot dose-response curves, which were further analyzed by nonlinear regression analysis. Mean RFU of the first 10 seconds was used as a baseline of the AUC. EC50 values of the dose-response curves were further used to plot Schild curves, and the curves were analyzed with linear regression analysis. For the mice von Frey test, mechanical thresholds were analyzed with two-way ANOVA followed by a Bonferonni test for multiple comparison analysis. For the zebrafish behavior test, the data from the first five seconds following drug administration were excluded, as zebrafish displacement during that period was highly influenced by liquid dispensing. AUC of all curves were measured and analyzed by one-way ANOVA. The post-hoc analysis was conducted with the Tukey’s or Dunnett’s multiple comparisons unless it stated otherwise. […] For our time-course average displacement graph, we used 2nd degree polynomial smoothing for a better representation; however, we used data before smoothing for all statistical analysis and quantification. All in vitro and in vivo data were evaluated using GraphPad Prism 7 (GraphPad Software, La Jolla, CA) unless it stated otherwise.

Row | SMILES | EC50 | calcium influx by antagonist alone (316 µM, zTRPA1b-transfected cells) | pA2 expressed in µM (Schild plot against ASP7663-mediated calcium influx, zTRPA1b) | pA2 (Schild plot against ASP7663-mediated calcium influx, zTRPA1b, only two antagonist doses) | Schild slope (zTRPA1b, n = 2)
1 | C=CCN=C=S [AITC, allyl isothiocyanate] | 35.4 µM | – | – | – | –
2 | CC(C)CN1C(=O)/C(=C/C(=O)O)c2cccc(F)c21 [ASP7663] | 99 µM | – | – | – | –
3 | CC(C)c1ccc(NC(=O)Cn2cnc3c2c(=O)n(C)c(=O)n3C)cc1 [HC-030031] | – | could produce an influx of intracellular calcium | 27.1 µM | 4.6 ± 0.3 | 0.83 ± 0.05
